This passage reports melting point results from patent US20060160814A1, “Phosphodiesterase 10 inhibitors” (priority 2004, published 2006).

The structures appear in SMILES notation. Where a name gives a salt, the structure may show the parent alone.

The term melting point denotes the temperature, or range, at which the solid turns liquid. Take `COc1cc2nncc(C(C#N)C3=NC(C)(C)CN3C(C)C)c2cc1OC` (stereo not shown) (as salt: hydrochloride) [Compound 110, (4,5-Dihydro-4,4-dimethyl-1-isopropyl-1H-imidazol-2-yl) (6,7-dimethoxycinnolin-4-yl)-acetonitrile hydrochloride]: the melting point was 210 to 212 °C (dec.).
